The source of these data is US10703748B2, “Diazanaphthalen-3-yl carboxamides and preparation and use thereof” (Samumed, LLC, priority 2017, dated 2020).

Molecules are shown by their SMILES.

In one assay the test system is IL-6. The assay can be described thus: IL-6 inhibition in LPS-stimulated human peripheral blood mononuclear cells (HTRF). The following applies: Homo sapiens, PBMC; for EC50: 22 h; for inhibition at 10 µM: read-out: percentage in parentheses after EC50 >10. (Time-resolved FRET reads energy transfer from a long-lived donor to a nearby acceptor.)
The target of the next assay is GSK3β kinase (Homo sapiens, UniProt P49841). Description: GSK3β kinase activity (Ser/Thr 09 peptide Z-lyte FRET assay). The class given is biochemical. Conditions: recombinant kinase, 46 μM ATP, one hour at room temperature; read-out: EC50.
GSK3β kinase, sequence (P49841 whole entry): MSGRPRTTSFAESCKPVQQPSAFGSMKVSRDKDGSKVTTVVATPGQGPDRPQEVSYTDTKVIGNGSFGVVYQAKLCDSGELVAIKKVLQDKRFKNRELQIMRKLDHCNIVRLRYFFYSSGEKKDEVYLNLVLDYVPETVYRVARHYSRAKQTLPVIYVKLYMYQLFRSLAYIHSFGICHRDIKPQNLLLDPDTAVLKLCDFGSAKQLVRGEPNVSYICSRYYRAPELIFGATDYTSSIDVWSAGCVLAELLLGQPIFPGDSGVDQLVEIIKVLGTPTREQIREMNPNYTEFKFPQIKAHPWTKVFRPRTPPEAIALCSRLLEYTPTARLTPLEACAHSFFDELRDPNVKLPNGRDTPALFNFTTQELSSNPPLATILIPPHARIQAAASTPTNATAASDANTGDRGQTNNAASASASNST
Assay [1] relates to secreted cytokines TNFα, IL-6 and KC-GRO. The assay can be described thus: Secreted cytokines in Lipopolysaccharide-stimulated BV-2 cells (Table 9 does not say which cytokine). The class given is cell-based, mouse. Conditions: Mus musculus, BV-2, 5 h; read-out: EC50.
The next assay deals with DYRK1A kinase (Homo sapiens, UniProt Q13627). Description: DYRK1A kinase activity (Ser/Thr 18 peptide Z-lyte FRET assay).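 Note: kinase activity read as coumarin/fluorescein emission ratio after development step, with unphosphorylated and phosphorylated peptide forms setting 0% and 100% controls, values from dose-response curves.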 The class given is biochemical. Conditions: recombinant DYRK1A, 30 μM ATP, one hour at room temperature.
Assay [2] relates to Wnt-responsive Sp5-Luc reporter in SW480 colon carcinoma cells. The assay can be described thus: Screening assay for Wnt activity (Sp5-Luc reporter gene assay). Conditions: Homo sapiens; for EC50: SW480; for inhibition at 10 µM: SW480, read-out: percent inhibition at 10 μM. (In general: A reporter such as luciferase makes a cellular process visible.)
Assay [3] deals with α-smooth muscle actin (aSMA) positive LL29 cells. The assay can be described thus: Inhibition of the fibrotic process: αSMA staining in TGF-β1 treated LL29 fibroblasts from IPF patients. The following applies: Homo sapiens, Fibroblast; for EC50: 96 h; for inhibition at 10 µM: read-out: percentage in parentheses after EC50 >10.
Assay [4] has as its system SW480 colon carcinoma cells. Description: Cell viability assay (CellTiter-Glo). Conditions: Homo sapiens; for EC50: SW480, 96 h; for inhibition at 10 µM: SW480, read-out: percent inhibition at 10 μM.

The term EC50 denotes the concentration at which the effect is half-maximal. Regarding `Cn1cc(-c2cnc3cnc(NC(=O)CCc4ccccc4)cc3c2)cn1` [Compound 2914, N-(3-(1-Methyl-1H-pyrazol-4-yl)-1,7-naphthyridin-6-yl)-3-phenylpropanamide], the half-maximal effective concentration (EC50) in the assay on IL-6 was above 10000 nM; on GSK3β kinase, 453 nM; in assay [1], 131 nM; at DYRK1A kinase, 28 nM; in assay [2], 751 nM; in assay [3] it was 893 nM. In addition, the 50% effective concentration (EC50) in assay [4] came out at 692 nM. The inhibition at 10 µM with IL-6 turned out to be 5%.

In the case of `Cn1cc(-c2cnc3cnc(NC(=O)c4ccc5ccoc5c4)cc3c2)cn1` [Compound 2929, N-(3-(1-Methyl-1H-pyrazol-4-yl)-1,7-naphthyridin-6-yl)benzofuran-6-carboxamide], the EC50 in the assay on IL-6 was above 10000 nM; at GSK3β kinase, above 10000 nM; in assay [1], 234 nM; at DYRK1A kinase it was 17 nM; in assay [2], 835 nM; in assay [3], 2250 nM. Besides, the EC50 in assay [4] is 1060 nM. In the assay on IL-6, the inhibition at 10 µM was found to be 4.5%.

For `CN1CCC(n2cc(C(=O)Nc3cc4cc(-c5cnn(C)c5)cnc4cn3)cn2)CC1` [Compound 2949, N-(3-(1-Methyl-1H-pyrazol-4-yl)-1,7-naphthyridin-6-yl)-1-(1-methylpiperidin-4-yl)-1H-pyrazole-4-carboxamide], the 50% effective concentration (EC50) with IL-6 is 9150 nM; at GSK3β kinase it was above 10000 nM; in assay [1], 454 nM; at DYRK1A kinase, 24 nM; in assay [2], 59 nM; in assay [3], 5150 nM. A half-maximal effect in assay [4] (EC50) was put at 440 nM.

On to `CC(C)OC(=O)N1CCC(n2cc(C(=O)Nc3cc4cc(-c5cnn(C)c5)cnc4cn3)cn2)CC1` [Compound 2954, Isopropyl 4-(4-((3-(1-methyl-1H-pyrazol-4-yl)-1,7-naphthyridin-6-yl)carbamoyl)-1H-pyrazol-1-yl)piperidine-1-carboxylate], for which the EC50 with IL-6 is above 10000 nM; at GSK3β kinase, above 10000 nM; in assay [1] it was 491 nM; at DYRK1A kinase it was 28 nM; in assay [2] it was 915 nM; in assay [3] it was 3340 nM. The compound also came in with an EC50 in assay [4] of 1500 nM. For the same compound, the inhibition at 10 µM with IL-6 stood at 45%.

With `CN1CCN(c2cc(C(=O)Nc3cc4cc(-c5cnn(C)c5N)cnc4cn3)ccn2)CC1` [Compound 3024, N-(3-(5-Amino-1-methyl-1H-pyrazol-4-yl)-1,7-naphthyridin-6-yl)-2-(4-methylpiperazin-1-yl)isonicotinamide], the concentration for a half-maximal effect (EC50) is above 10000 nM in the assay on IL-6; above 10000 nM on GSK3β kinase; 1200 nM in assay [1]; 17 nM at DYRK1A kinase; 2610 nM in assay [2]; above 10000 nM in assay [3]. This compound also had an EC50 in assay [4] of 3370 nM. For the same compound, the inhibition at 10 µM in the assay on IL-6 was determined as 11.1%; in assay [3] it was 50%.

Regarding `CN1CCC2(CC1)CN(c1cc(C(=O)Nc3cc4cc(-c5cnn(C)c5CN5CCCCC5)cnc4cn3)ccn1)C2` [Compound 3032, N-(3-(1-Methyl-5-(piperidin-1-ylmethyl)-1H-pyrazol-4-yl)-1,7-naphthyridin-6-yl)-2-(7-methyl-2,7-diazaspiro[3.5]nonan-2-yl)isonicotinamide], the EC50 in the assay with IL-6 was 1650 nM; at GSK3β kinase it was above 10000 nM; in assay [1], 127 nM; on DYRK1A kinase it was 8 nM; in assay [2] it was 607 nM; in assay [3], 1580 nM. The same compound showed a concentration giving a half-maximal response (EC50) in assay [4] of 599 nM.

`Cn1cc(-c2cnc3cnc(NC(=O)C4CCN(CC5(C(F)(F)F)CC5)CC4)cc3c2)nn1` [Compound 3067, N-(3-(1-Methyl-1H-1,2,3-triazol-4-yl)-1,7-naphthyridin-6-yl)-1-((1-(trifluoromethyl)cyclopropyl)methyl)piperidine-4-carboxamide]: the EC50 with IL-6 is above 10000 nM; on GSK3β kinase it was 836 nM; in assay [1] it was 3900 nM; at DYRK1A kinase, 58 nM; in assay [2], 4500 nM; in assay [3] it was above 10000 nM. In assay [4], this compound yielded an EC50 above 10000 nM. For the same compound, the inhibition at 10 µM in the assay on IL-6 turned out to be 0%; in assay [3], 31.7%; in assay [4] it was 42.2%.

Take `Cn1cncc1-c1cnc2cnc(NC(=O)c3ccc(F)cc3)cc2c1` [Compound 3168, 4-Fluoro-N-(3-(1-methyl-1H-imidazol-5-yl)-1,7-naphthyridin-6-yl) benzamide]: the EC50 was above 10000 nM in the assay with IL-6; above 10000 nM on GSK3β kinase; 2600 nM in assay [1]; 8 nM on DYRK1A kinase; above 10000 nM in assay [2]; above 10000 nM in assay [3]. This compound also gave a 50% effective concentration (EC50) in assay [4] above 10000 nM. In addition, the inhibition at 10 µM with IL-6 was 0%; in assay [2], 17.3%; in assay [3] it was 10.2%; in assay [4], 25.8%.

For the compound `Cn1cncc1-c1cnc2cnc(NC(=O)c3ccc4c(c3)CNC4)cc2c1` [Compound 3194, N-(3-(1-Methyl-1H-imidazol-5-yl)-1,7-naphthyridin-6-yl)isoindoline-5-carboxamide], the EC50 in the assay on IL-6 is above 10000 nM; at GSK3β kinase it was above 10000 nM; in assay [1] it was at least 10000 nM; on DYRK1A kinase it was 6 nM; in assay [2], 4780 nM; in assay [3] it was above 10000 nM. The same compound displayed an EC50 in assay [4] of 4070 nM. Besides, the inhibition at 10 µM came to 8.9% with IL-6 and 47.3% in assay [3].

`CC(F)(F)CN1CCC(C(=O)Nc2cc3cc(-c4cnco4)cnc3cn2)CC1` [Compound 3257, 1-(2,2-Difluoropropyl)-N-(3-(oxazol-5-yl)-1,7-naphthyridin-6-yl)piperidine-4-carboxamide]: the EC50 in the assay on IL-6 was above 10000 nM; on GSK3β kinase, 5300 nM; in assay [1], 458 nM; on DYRK1A kinase, 16 nM; in assay [2] it was above 10000 nM; in assay [3], above 10000 nM. Moreover, the half-maximal effective concentration (EC50) in assay [4] is above 10000 nM. For the same compound, the inhibition at 10 µM in the assay on IL-6 came to 3.2%; in assay [2], 12.9%; in assay [3] it was 36%; in assay [4] it was 15%.

For the compound `Cn1cncc1-c1cnc2cnc(NC(=O)c3cccc(CN4CCCC4)c3)cc2c1` [Compound 3259, N-(3-(1-Methyl-1H-imidazol-5-yl)-1,7-naphthyridin-6-yl)-3-(pyrrolidin-1-ylmethyl)benzamide], the EC50 with IL-6 was above 10000 nM; on GSK3β kinase, above 10000 nM; in assay [1], 1200 nM; at DYRK1A kinase, 24 nM; in assay [2] it was 3500 nM; in assay [3] it was above 10000 nM. In addition, the EC50 in assay [4] came out at 1940 nM. For the same compound, the results for the inhibition at 10 µM (with IL-6; in assay [3]) were 4.1% and 48.4%, respectively.

As to `CN1CCC(Oc2cccc(C(=O)Nc3cc4cc(-c5cnco5)cnc4cn3)c2)CC1` [Compound 3311, 3-((1-Methylpiperidin-4-yl)oxy)-N-(3-(oxazol-5-yl)-1,7-naphthyridin-6-yl) benzamide], the EC50 in the assay on IL-6 is above 10000 nM; on GSK3β kinase it was above 10000 nM; in assay [1], 420 nM; on DYRK1A kinase, 7 nM; in assay [2], above 10000 nM; in assay [3] it was 1440 nM. This compound also had a concentration giving a half-maximal response (EC50) in assay [4] above 10000 nM. Besides, the inhibition at 10 µM turned out to be 5.8% with IL-6, 4.9% in assay [2] and 5.4% in assay [4].

`CN1CCC(C(=O)Nc2cc3cc(-c4cnsc4)cnc3cn2)CC1` [Compound 3412, N-(3-(Isothiazol-4-yl)-1,7-naphthyridin-6-yl)-1-methylpiperidine-4-carboxamide]: the 50% effective concentration (EC50) in the assay on IL-6 is above 10000 nM; at GSK3β kinase, above 10000 nM; in assay [1], 1500 nM; on DYRK1A kinase it was 40 nM; in assay [2], above 10000 nM; in assay [3], above 10000 nM. This compound also returned an EC50 in assay [4] above 10000 nM. In addition, the inhibition at 10 µM was 2.7% with IL-6, 47.1% in assay [2], 46.2% in assay [3] and 41.5% in assay [4].

For the compound `Nc1cncc(-c2cnc3cnc(NC(=O)c4ccc(OC5CCNCC5)cc4)cc3c2)c1` [Compound 3524, N-(3-(5-Aminopyridin-3-yl)-1,7-naphthyridin-6-yl)-4-(piperidin-4-yloxy) benzamide], the EC50 in the assay with IL-6 was above 10000 nM; on GSK3β kinase, above 10000 nM; in assay [1] it was 582 nM; at DYRK1A kinase, 11 nM; in assay [2], 3550 nM; in assay [3] it was above 10000 nM. In addition, the concentration for a half-maximal effect (EC50) in assay [4] is 3710 nM. The inhibition at 10 µM in the assay with IL-6 is 5.6%; in assay [3], 50%.

Take `CN1CC=C(c2cc(C(=O)Nc3cc4cc(-c5cncc(NC(C)(C)C)n5)cnc4cn3)ccn2)CC1` [Compound 3587, N-(3-(6-(tert-Butylamino)pyrazin-2-yl)-1,7-naphthyridin-6-yl)-1′-methyl-1′,2′,3′,6′-tetrahydro-[2,4′-bipyridine]-4-carboxamide]: the EC50 in the assay with IL-6 was 7660 nM; at GSK3β kinase it was above 10000 nM; in assay [1] it was 11 nM; at DYRK1A kinase it was 1 nM; in assay [2] it was 357 nM; in assay [3] it was 1440 nM. In assay [4], this compound had a 50% effective concentration (EC50) of 821 nM.
